Laboratory results from patent US20230250292A1, “AROMATIC HYDROCARBON-SOLUBLE ANTHRAQUINONE” (Dow Global Technologies LLC, priority 2020, published 2023).

What was measured:
[1] = Storage stability in Aromatic 200 solvent at -10° C.; assay type: physicochemical; settings: -10° C. freezer
Description: Storage stability experiments of Examples 1-3 as well as Comparative Examples 4 and 5 as well as Comparative Example 6 (a 50:50 molar physical blend of Comparative Examples 4 and 5) are conducted as follows. For each Example, a calibration line is generated by preparing 0.5 and 1.7 wt% solutions of each Example using a batch of Aromatic 200 supplied from TOTAL, identified as ATOSOL 200ND, and measuring the UV/vis absorbance at these known concentrations. The solutions are heated to 60° C. with stirring overnight and allowed to cool to ambient temperature for at least several hours, preferably overnight. For the 0.5 and 1.7 wt% solutions for each marker, UV/vis measurements are prepared by diluting an aliquot of each solution (exact weight recorded) into a known amount of xylenes to target an absorbance value below approximately 2.5. […] For other Examples, several drops of the targeted 10 wt% solution are filtered and a known amount of the filtrate is diluted with a known amount of xylenes to target an absorbance value below approximately 2.5. The initial concentration is determined by measuring the absorbance value of a known concentration of the filtered and diluted aliquot taken from the targeted 10 wt% solution. The expected UV/vis absorbance value of the aliquot is calculated based on the calibration standards, and this value is compared against the actual measured absorbance value. […]

[2] = Maximum (initial) soluble concentration in Aromatic 200 solvent by UV/vis; assay type: physicochemical; settings: for Measured Initial Concentration: Aromatic 200 (ATOSOL 200ND), targeted 10 wt% solution, filtered, diluted in xylenes, UV/vis against 0.5 and 1.7 wt% calibration
Description: For each Example, a calibration line is generated by preparing 0.5 and 1.7 wt% solutions of each Example using a batch of Aromatic 200 supplied from TOTAL, identified as ATOSOL 200ND, and measuring the UV/vis absorbance at these known concentrations. The solutions are heated to 60° C. with stirring overnight and allowed to cool to ambient temperature for at least several hours, preferably overnight. For the 0.5 and 1.7 wt% solutions for each marker, UV/vis measurements are prepared by diluting an aliquot of each solution (exact weight recorded) into a known amount of xylenes to target an absorbance value below approximately 2.5. […] For other Examples, several drops of the targeted 10 wt% solution are filtered and a known amount of the filtrate is diluted with a known amount of xylenes to target an absorbance value below approximately 2.5. The initial concentration is determined by measuring the absorbance value of a known concentration of the filtered and diluted aliquot taken from the targeted 10 wt% solution. The expected UV/vis absorbance value of the aliquot is calculated based on the calibration standards, and this value is compared against the actual measured absorbance value. Measured values below the expected value indicate the marker is not fully soluble at this 10 wt% concentration.

CCCCc1ccc(Nc2ccc(Nc3ccc(CCCC)cc3)c3c2C(=O)c2c(Nc4ccc(CCCC)cc4)ccc(Nc4ccc(CCCC)cc4)c2C3=O)cc1 [Comparative Example 4, 1,4,5,8-tetrakis(4-(n-butyl)phenylamino)anthracene-9,10-dione]
Storage stability: Concentration after storage at -10° C., 4 days [1]: 4.2 wt%
Measured Initial Concentration [2]: 7.0 wt%

Cc1ccc(Nc2ccc(Nc3ccc(C)cc3)c3c2C(=O)c2c(Nc4ccc(C)cc4)ccc(Nc4ccc(C)cc4)c2C3=O)cc1 [Comparative Example 5, 1,4,5,8-tetrakis(4-methylaniline)anthracene-9,10-dione]
Solubility of calibration solution in Aromatic 200 (solids observed) ([2]; 1.7 wt% solution in Aromatic 200, heated to 60° C. overnight, cooled to ambient): solids are observed at 1.7 wt%
Measured Initial Concentration [2]: Solids observed at 1.7%, no measurement
